Experimental data taken from patent US20220378721A1, “PROTEIN KINASE INHIBITORS AND USE THEREOF FOR TREATMENT OF NEURODEGENERATIVE DISEASES” (Xavier University of Louisiana, priority 2019, published 2022).
Where two headings read alike, the source gives them in different places.

Columns and labels:
[1] = biological target: CSNK1D (CK1δ) (Homo sapiens, UniProt P48730); assay: 100 kinase panel assay; assay type: biochemical
Text: (§1) Compound 2 (from FIG. 1) was screened against a panel of 100 kinases to understand the specificity.

[2] = biological target: PIM1 (Homo sapiens, UniProt P11309); assay: 100 kinase panel assay; assay type: biochemical
Text: as §1

[3] = biological target: PIM3 (Homo sapiens, UniProt Q86V86); assay: 100 kinase panel assay; assay type: biochemical
Text: as §1

[4] = system: tau phosphorylation at Ser202 in HeLa cells; assay: Inhibition of tau phosphorylation at serine 202 in HeLa cells expressing full-length Tau; assay type: cell-based; conditions: HeLa cells transfected with full length tau, 10 μM compound; for inhibition of tau phosphorylation of Ser202: pTau/total Tau
Protocol: FIG. 3A and FIG. 3B show inhibition of Tau phosphorylation by CK1δ inhibitors in HeLa cells. HeLa cervical cancer cells ectopically expressing full-length Tau protein were treated with 10 μM of the indicated compounds. Samples were prepared in triplicate. […] Actin was used as a loading control only and was not used in any later calculations. […] The Y axis reflects the average change in pTau levels divided by total Tau levels for the triplicate experiments for each compound. For normalization purposes, the vehicle control was set to 1.0 and all other values were adjusted accordingly.
For a CK1δ inhibitor to be considered a potential therapeutic for AD, the compound should be able to inhibit the phosphorylation of tau at the specific residues that are known to be phosphorylated by CK1δ. It has been shown that tau phosphorylation at Ser202/Ser205 and Ser396/Ser404 by CK1δ is not dependent on the priming by other protein kinases. Additionally, these phosphorylation sites are among those sites (Ser199, Ser 202, Ser231, Thr205, Ser396 and Ser404) that regulate the microtubule stabilizing function. Based on these evidences, Ser202 was chosen as the representative tan phosphorylation site of this study to understand the efficacy of our CK1δ inhibitors in inhibiting tau phosphorylation.
Inhibition of Tau Phosphorylation. To confirm biological relevance, the compounds identified by the FRET screens as potential CK1δ inhibitors were tested in an in vitro assay for their ability to inhibit the phosphorylation of tau at serine 202, a known target of CK1δ. LH 846, a known inhibitor of CK1δ was used as the positive control. […] In in-vitro tau phosphorylation assay in HeLa cells that were transfected with full length tau, the CK1δ inhibitors indeed lowered the tau phosphorylation levels at Ser202 by 20%-56%. Compounds 8 and 9 inhibited tau phosphorylation of Ser202 by 56% and 55%, respectively when added to HeLa cells that were transfected with and therefore overexpressed tan protein (FIG. 3).

[5] = biological target: CK1δ (Homo sapiens, UniProt P48730); assay: Casein kinase 1δ inhibition assay, Z'-LYTE FRET based (ThermoFisher SelectScreen); assay type: biochemical; conditions: for % Inhibition CK1δ: 10 μM concentration, high-throughput screening
Protocol: Casein kinase 1δ Inhibition Assay: An initial high-throughput assay of the 28 commercially purchased compounds and 22 synthesized compounds were conducted at a 10 μM concentration at the ThermoFisher Select Screen facility. […] FIG. 1 sets forth their chemical structures.
These compounds were then subjected to dose response curve determination studies with the same FRET based assays at ThermoFisher Scientific. The IC50 values, defined as the concentration of the compound required to […] by 50%, of the some of the compounds from the screening were measured (Table 2).
(§2) The synthesized molecules from FIG. 5 were then analyzed for the inhibition of CK1δ and CK1ε, using in-vitro kinase inhibition assay. The in-vitro kinase inhibition assays were conducted at the ThermoPisher Select Screen Biochemical Kinase Profiling Service. It is a Z′-LYTE biochemical FRET based fluorescence assay with a coupled enzyme format that has differential sensitivity to phosphorylated and non-phosphorylated peptides upon proteolytic cleavage. An initial high-throughput in-vitro screening assay at a concentration of 10 μM for all of the compounds in FIG. 5.
(§3) Table 4 sets forth the IC50 values of inhibition of CK1δ and CK1ε by some of the compounds from FIG. 5.

[6] = biological target: CK1ε (Homo sapiens, UniProt P49674); assay: In-vitro kinase inhibition assay, Z'-LYTE FRET based (ThermoFisher SelectScreen); assay type: biochemical; conditions: for % Inhibition CK1ε: 10 μM concentration, high-throughput screening; for IC50: 10-point titration, 3-fold dilution from 25 μM (Table 4)
Protocol: as §2, §3

[7] = dose response, FRET based assay (Table 2), read-out: CK1δ (IC50 μM)
[8] = 10-point titration, 3-fold dilution from 25 μM (Table 4), read-out: IC50 values of inhibition of CK1δ
[9] = 10-point titration, 3-fold dilution from 25 μM (Table 4)

Chain of CK1δ (P48730 whole entry): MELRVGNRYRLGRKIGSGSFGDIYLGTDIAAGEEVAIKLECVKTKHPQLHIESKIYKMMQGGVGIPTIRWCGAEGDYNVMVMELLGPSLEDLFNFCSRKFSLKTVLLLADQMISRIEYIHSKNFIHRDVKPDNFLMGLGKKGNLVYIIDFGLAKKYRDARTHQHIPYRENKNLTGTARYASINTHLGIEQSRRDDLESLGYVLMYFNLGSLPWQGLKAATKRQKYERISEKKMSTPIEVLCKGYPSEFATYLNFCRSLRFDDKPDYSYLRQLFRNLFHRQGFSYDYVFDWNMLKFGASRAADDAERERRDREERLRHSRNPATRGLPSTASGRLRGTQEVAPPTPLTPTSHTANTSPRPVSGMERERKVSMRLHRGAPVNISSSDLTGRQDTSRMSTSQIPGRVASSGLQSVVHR
Chain of CK1ε (P49674 whole entry): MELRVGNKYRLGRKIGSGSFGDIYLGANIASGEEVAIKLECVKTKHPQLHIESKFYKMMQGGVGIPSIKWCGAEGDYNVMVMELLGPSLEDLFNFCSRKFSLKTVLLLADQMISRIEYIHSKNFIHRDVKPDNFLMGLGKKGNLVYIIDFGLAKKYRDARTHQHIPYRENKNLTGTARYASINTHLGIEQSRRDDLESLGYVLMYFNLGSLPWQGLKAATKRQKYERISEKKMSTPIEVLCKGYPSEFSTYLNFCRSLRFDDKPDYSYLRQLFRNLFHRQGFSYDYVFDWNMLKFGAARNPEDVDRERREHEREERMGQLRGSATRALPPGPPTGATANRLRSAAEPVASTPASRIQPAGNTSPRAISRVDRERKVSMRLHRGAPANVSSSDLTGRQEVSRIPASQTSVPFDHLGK
Chain of CSNK1D (CK1δ) (P48730 whole entry): as the sequence (P48730 whole entry) above
Chain of PIM1 (P11309 whole entry): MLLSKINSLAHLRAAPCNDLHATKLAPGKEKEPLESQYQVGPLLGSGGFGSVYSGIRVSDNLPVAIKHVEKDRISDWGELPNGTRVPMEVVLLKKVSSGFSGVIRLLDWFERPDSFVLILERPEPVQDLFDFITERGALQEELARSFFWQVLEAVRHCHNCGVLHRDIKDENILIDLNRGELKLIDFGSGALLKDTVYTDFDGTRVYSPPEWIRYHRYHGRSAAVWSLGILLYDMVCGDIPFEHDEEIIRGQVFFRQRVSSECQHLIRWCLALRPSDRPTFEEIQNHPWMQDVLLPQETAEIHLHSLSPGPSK

O=C1C2=C(C(=O)c3c(O)ccc(O)c31)C(O)C(O)C(O)C2 (stereo not drawn) [Compound 2]
% Inhibition at 10 μM, CSNK1D [1]: 70%
% Inhibition at 10 μM, PIM1 [2]: 66%
% Inhibition at 10 μM, PIM3 [3]: 64%
inhibition of tau phosphorylation at Ser202 (in words) [4]: did not measure up to them

CC(=O)Oc1ccc(O)c2c1C(=O)C=CC2=O [Compound 3]
IC50 [5, 7]: 0.2 µM

COc1cc2cc3c(c(O)c2c(O)c1C=CC(C)C)C(=O)CC(C)(OC(C)=O)C3 (stereo not drawn) [Compound 4]
IC50 [5, 7]: 16.1 µM

COc1cccc2c1C(=O)c1c(O)ccc(O)c1C2=O [Compound 5]
IC50 [5, 7]: 0.2 µM
inhibition of tau phosphorylation at Ser202 (in words) [4]: comparable inhibition potency
inhibition of tau phosphorylation of Ser202 [4]: approximately 43%

O=C1c2ccccc2C(=O)c2c(NCCO)cccc21 [Compound 6]
IC50 [5, 7]: 21.2 µM

CNC(=O)c1ccc2c(c1N)C(=O)c1ccccc1C2=O [Compound 7]
IC50 [5, 7]: 19.4 µM

CC(C)(C)OC1CC(=O)CC2C(=O)c3cccc(O)c3C(=O)C12 (stereo not drawn) [Compound 8]
IC50 [5, 7]: 18.9 µM
inhibition of tau phosphorylation at Ser202 (in words) [4]: comparable inhibition potency
inhibition of tau phosphorylation of Ser202 [4]: 56%

CC(C)C(C)OC1CC(=O)CC2C(=O)c3c(O)ccc(O)c3C(=O)C12 (stereo not drawn) [Compound 9]
IC50 [5, 7]: 5.8 µM
inhibition of tau phosphorylation at Ser202 (in words) [4]: comparable inhibition potency
inhibition of tau phosphorylation of Ser202 [4]: 55%

CC(C)(C)OC1CC(O)CC2C(=O)c3c(O)ccc(O)c3C(=O)C12 (stereo not drawn) [Compound 10]
IC50 [5, 7]: 10.1 µM

O=C1C(CO)=C(CO)C(=O)c2c(O)ccc(O)c21 [Compound 11]
IC50 [5, 7]: 27.2 µM

O=C1C=C(CBr)C(=O)c2c(O)ccc(O)c21 [Compound 12]
% Inhibition CK1δ ([5]; 10 µM): 94%
IC50 [5, 8]: 0.72 µM
IC50 [5, 7]: 0.7 µM
% Inhibition CK1ε ([6]; 10 µM): 101%
inhibition of tau phosphorylation at Ser202 (in words) [4]: comparable inhibition potency

Cc1ccc(O)c2c1C(=O)C=CC2=O [Compound 13]
% Inhibition CK1δ ([5]; 10 µM): 85%
IC50 [5, 8]: 2.41 µM
IC50 [5, 7]: 31.2 µM
% Inhibition CK1ε ([6]; 10 µM): 98%
IC50 [6]: 1.19 µM

O=Cc1cc(O)c2c(c1O)C(=O)C=CC2=O [Compound 14]
IC50 [5, 7]: 3.1 µM

Cc1cc(O)c2c(c1O)C(=O)C=CC2=O [Compound 15]
% Inhibition CK1δ [5]: 31%
IC50 [5, 7]: 6.3 µM
% Inhibition CK1ε [6]: 58%

CC(O)C1=CC(=O)c2c(O)ccc(O)c2C1=O (stereo not drawn) [Compound 16]
IC50 [5, 7]: 2.4 µM
inhibition of tau phosphorylation at Ser202 (in words) [4]: comparable inhibition potency

O=C1C=CC(=O)c2c(O)c(Cl)cc(O)c21 [Compound 18]
% Inhibition CK1δ [5]: 13%
IC50 values of inhibition of CK1δ [5, 9]: could not be determined
IC50 [5, 8]: > 25 µM
% Inhibition CK1ε ([6]; 10 µM): 90%
IC50 [6]: 1.34 µM

O=C1C(Cl)=C(Cl)C(=O)c2c(O)c(Cl)cc(O)c21 [Compound 19]
% Inhibition CK1δ [5]: 42%
IC50 [5, 8]: 9.58 µM
% Inhibition CK1ε ([6]; 10 µM): 88%
selectivity for CK1ε over CK1δ ([6]; from % inhibition at 10 μM): 2 fold

O=C1C(Cl)=C(Cl)C(=O)c2c(O)ccc(O)c21 [Compound 20]
% Inhibition CK1δ [5]: 21%
IC50 values of inhibition of CK1δ [5, 9]: could not be determined
IC50 [5, 8]: > 25 µM
% Inhibition CK1ε ([6]; 10 µM): 84%
IC50 [6]: 7.52 µM

O=C1C(c2ccccc2)=C(c2ccccc2)C(=O)c2c(O)ccc(O)c21 [Compound 21]
% Inhibition CK1δ [5]: 8%
% Inhibition CK1ε [6]: 14%

CC1=C(C)C(=O)c2c(O)c(Cl)cc(O)c2C1=O [Compound 22]
% Inhibition CK1δ [5]: 2%
% Inhibition CK1ε [6]: 39%

O=C1C=C(c2ccccc2)C(=O)c2c(O)ccc(O)c21 [Compound 23]
% Inhibition CK1δ [5]: 17%
% Inhibition CK1ε [6]: 60%

O=C1C=C(Br)C(=O)c2c(O)ccc(O)c21 [Compound 24]
% Inhibition CK1δ [5]: 1%
IC50 values of inhibition of CK1δ [5, 9]: could not be determined
IC50 [5, 8]: > 25 µM
% Inhibition CK1ε ([6]; 10 µM): 96%
IC50 [6]: 2.1 µM

CC(C)Cc1cc(O)c2c(c1)C(=O)C=CC2=O [Compound 25]
% Inhibition CK1δ [5]: 11%
% Inhibition CK1ε [6]: 48%

CCc1cc(O)c2c(c1)C(=O)C=C(C1=CC(=O)c3cc(CC)cc(O)c3C1=O)C2=O [Compound 26]
% Inhibition CK1δ [5]: 43%
% Inhibition CK1ε [6]: 64%

CCCCCc1cc(O)c2c(c1)C(=O)C=C(C1=CC(=O)c3cc(CCCCC)cc(O)c3C1=O)C2=O [Compound 27]
% Inhibition CK1δ [5]: 9%
% Inhibition CK1ε [6]: 13%

CC(C)CCc1cc(O)c2c(c1)C(=O)C=C(C1=CC(=O)c3cc(CCC(C)C)cc(O)c3C1=O)C2=O [Compound 28]
% Inhibition CK1δ [5]: 9%
% Inhibition CK1ε [6]: 13%

CC(C)Cc1cc(O)c2c(c1)C(=O)C=C(C1=CC(=O)c3cc(CC(C)C)cc(O)c3C1=O)C2=O [Compound 29]
% Inhibition CK1δ [5]: 8%
% Inhibition CK1ε [6]: 15%

CCCCCCc1cc(O)c2c(c1)C(=O)C=C(C1=CC(=O)c3cc(CCCCCC)cc(O)c3C1=O)C2=O [Compound 30]
% Inhibition CK1δ [5]: 6%
% Inhibition CK1ε [6]: 12%
